Reference: patent publication US20170312207A1, “MOISTURIZING AGENT” (SHOWA DENKO K.K., priority 2014, published 2017)

How the values were obtained:
loricrin gene = assay: Promoting expression of CE-forming-related factor: loricrin gene, quantitative real-time PCR; type: cell-based, human; details: SVHK cells, 1 μM, 48 hours; standardized to GAPDH; purified water control 1.00
Description: (§1) Loricrin, involucrin, and transglutaminase-1 are known as CE-forming-related factors. Here, effect of an inositol derivative on promoting expression of CE-forming-related factors was examined by using human epidermal cells. Human epidermal cells (SVHK cells) which were established from introduction of SV40 gene into human epidermal cells, were seeded on a plastic petri dish at a seeding density of 10,000 cells/cm^2 and cultured for 24 hours in Dulbecco's Modified Eagle's Medium (DMEM, manufactured by Sigma-Aldrich Co. LLC.) containing 10% fetal bovine serum. […] Next, quantitative real-time PCR was performed using this cDNA as a template, and the expression levels of loricrin gene, involucrin gene, and transglutaminase-1 (TG-1) gene in SVHK cells of each group were quantified, respectively. In addition, the expression level of glyceraldehyde-3-phosphate dehydrogenase (GAPDH) which is a housekeeping gene in which variation is not observed in the expression by adding a compound, as an internal standard gene, was quantified, and based on the expression levels of GAPDH gene in SVHK cells of each group, the expression levels of loricrin gene, involucrin gene, and TG-1 gene were standardized. […]

involucrin gene = assay: Promoting expression of CE-forming-related factor: involucrin gene, quantitative real-time PCR; type: cell-based, human; details: SVHK cells, 1 μM, 48 hours; standardized to GAPDH; purified water control 1.00
Description: as §1

[1] = tested on: transglutaminase-1 (TG-1) gene; assay: Promoting expression of CE-forming-related factor: transglutaminase-1 (TG-1) gene, quantitative real-time PCR; type: cell-based, human; details: SVHK cells, 1 μM, 48 hours; standardized to GAPDH; purified water control 1.00
Description: as §1

[2] = tested on: Normal human epidermal keratinocytes (NHEK cell); assay: Test for evaluating CE-forming ability; type: cell-based; details: NHEK cells, 1.8 mM Ca2+ medium, 1 μM, four days; purified water control 100
Description: Normal human epidermal keratinocytes (NHEK cell manufactured by KURABO INDUSTRIES LTD.) were seeded on a 24 well plate at 1×10^5 cells/cm^2 and cultured at 37° C. under 5% CO2 to reach confluence. As a medium of NHEK cells, HuMedia-KG2 (product name, manufactured by KURABO INDUSTRIES LTD.) was used. After that, the medium was replaced to HuMedia-KG2 medium containing 1.8 mM Ca2+, the inositol derivative dissolved in purified water of Example 2 was added to the final concentration of 1 μM, and culturing was further performed for four days. As for a control, in place of the inositol derivative, the same amount of purified water was added to NHEK cells, and the cells were cultured in the same manner as above. In addition, for comparison, myo-inositol dissolved in purified water was added to NHEK cells in place of the inositol derivative, and the cells were cultured in the same manner as above. After four days of culturing, cells of each group were collected, removed of the supernatant, added with 2% sodium dodecyl sulfate (SDS)-20 mM dithiothreitol (DTT), and heated at 100° C. for 15 minutes. Next, the cells were added with 1% acetic acid-50% ethanol, centrifuged (at 15,000 rpm for five minutes), and removed of the supernatant. Next, the cells were added with 10 mM Tris-HCl-1 mM EDTA and observed with a microscope, and an amount of CE formation was counted. […]

AQP3 gene = assay: Promoting effect on AQP3 expression, quantitative real-time PCR; type: cell-based, human; details: SVHK cells, 1 μM, 48 hours; standardized to GAPDH; purified water control 1.00
Description: (§2) Human epidermal cells (SVHK cells) which were established from introduction of SV40 gene into human epidermal cells, were seeded on a plastic petri dish at a seeding density of 10,000 cells/cm^2 and cultured for 24 hours in Dulbecco's Modified Eagle's Medium (DMEM, manufactured by Sigma-Aldrich Co. LLC.) containing 10% fetal bovine serum. Next, to the medium of SVHK cells, the inositol derivatives dissolved in purified water of Examples 1 to 6 and Comparative Example 1 were added to the final concentration of 1 μM, and culturing was further performed for 48 hours. As for a control, in place of the inositol derivative, the same amount of purified water was added to SVHK cells, and the cells were cultured in the same manner as above. […] Next, quantitative real-time PCR was performed using this cDNA as a template, and the expression levels of AQP3 gene in SVHK cells of each group were quantified. In addition, the expression level of glyceraldehyde-3-phosphate dehydrogenase (GAPDH) which is a housekeeping gene in which variation is not observed in the expression by adding a compound, as an internal standard gene, was quantified, and based on the expression levels of GAPDH gene in SVHK cells of each group, the expression levels of AQP3 gene were standardized. […]

SPT1 gene = assay: Promoting effect on serine palmitoyltransferase expression: SPT1 gene; type: cell-based, human; details: SVHK cells, 10 μM, 48 hours; standardized to GAPDH; purified water control 1.00
Description: (§3) Serine palmitoyltransferase (SPT) is known as a rate-limiting enzyme for ceramides synthesis. Here, effect of an inositol derivative on promoting SPT gene expression was examined by using human epidermal cells. Human epidermal cells (SVHK cells) which were established from introduction of SV40 gene into human epidermal cells, were seeded on a plastic petri dish at a seeding density of 10,000 cells/cm^2 and cultured for 24 hours in Dulbecco's Modified Eagle's Medium (DMEM, manufactured by Sigma-Aldrich Co. LLC.) containing 10% fetal bovine serum. […] Next, quantitative real-time PCR was performed using this cDNA as a template, and the expression levels of SPT gene in SVHK cells of each group were quantified. More specifically, the expression levels of SPT1, SPT2, and SPT3 genes which are subunits of SPT were quantified. In addition, the expression level of glyceraldehyde-3-phosphate dehydrogenase (GAPDH) which is a housekeeping gene in which variation is not observed in the expression by adding a compound, as an internal standard gene, was quantified, and based on the expression levels of GAPDH gene in SVHK cells of each group, the expression levels of SPT1, SPT2, and SPT3 genes were standardized. […]

SPT2 gene = assay: Promoting effect on serine palmitoyltransferase expression: SPT2 gene; type: cell-based, human; details: SVHK cells, 10 μM, 48 hours; standardized to GAPDH; purified water control 1.00
Description: as §3

SPT3 gene = assay: Promoting effect on serine palmitoyltransferase expression: SPT3 gene; type: cell-based, human; details: SVHK cells, 10 μM, 48 hours; standardized to GAPDH; purified water control 1.00
Description: as §3

filaggrin gene = assay: Promoting effect on filaggrin gene expression, quantitative real-time PCR; type: cell-based, human; details: SVHK cells, 10 μM, 48 hours; standardized to GAPDH; purified water control 1.00
Description: as §2, with “Effect of an inositol derivative on promoting filaggrin gene expression was examined by using human epidermal cells. Human epidermal” for “Human epidermal”, “concentration of 10 μM, and” for “concentration of 1 μM, and”, “levels of filaggrin gene in” for “levels of AQP3 gene in”, “levels of filaggrin gene were” for “levels of AQP3 gene were”

## O[C@H]1[C@H](O)[C@@H](O)[C@H](O)[C@@H](O)[C@H]1O [Myo-inositol, myo-inositol]
Loricrin gene
  Expression levels of gene (relative value) lorierin: 0.39
Involucrin gene
  Expression levels of gene (relative value) involucrin: 2.42
[1]
  Expression levels of gene (relative value) TG-1: 1.96
[2]
  Amount of CE formation (relative value): 123
AQP3 gene
  Expression levels of AQP3 gene (relative value): 0.83
SPT1 gene
  Expression levels of gene (relative value) SPT1: 2.01
SPT2 gene
  Expression levels of gene (relative value) SPT2: 2.49
SPT3 gene
  Expression levels of gene (relative value) SPT3: 1.64
Filaggrin gene
  Expression levels of filaggrin gene (relative value): 5.94
